# Legend:
# panel of 442 kinases [1] = biological target: T1, panel of 442 kinases (Homo sapiens, UniProt Q92772); type: binding; conditions: Compound Concentration 10 µM
# T1 construct: purchased KINOMEscan
# T1 sequence (Q92772 1-493): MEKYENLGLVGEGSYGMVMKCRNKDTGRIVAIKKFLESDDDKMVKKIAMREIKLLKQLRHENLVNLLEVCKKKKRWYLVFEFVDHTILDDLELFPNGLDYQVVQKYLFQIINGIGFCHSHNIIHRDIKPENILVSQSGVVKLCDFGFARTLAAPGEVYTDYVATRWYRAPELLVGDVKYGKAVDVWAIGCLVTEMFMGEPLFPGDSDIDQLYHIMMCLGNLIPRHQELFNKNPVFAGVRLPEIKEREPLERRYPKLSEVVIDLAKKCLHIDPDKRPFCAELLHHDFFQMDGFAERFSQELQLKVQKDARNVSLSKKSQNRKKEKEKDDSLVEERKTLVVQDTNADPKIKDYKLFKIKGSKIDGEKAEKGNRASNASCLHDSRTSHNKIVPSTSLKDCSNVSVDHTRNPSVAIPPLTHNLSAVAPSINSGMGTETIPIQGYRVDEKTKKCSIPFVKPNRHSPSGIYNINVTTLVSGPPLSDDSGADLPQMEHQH
# Text: (§1) We assessed the selectivity of members of this scaffold using the KINOMEscan methodology across a near comprehensive panel of 442 kinases [[18,27]].
# panel of 442 kinases [2] = biological target: T2, panel of 442 kinases (Homo sapiens, UniProt Q9BX84); type: binding; conditions: kinase TRPM6; compound concentration 10 µM
# T2 construct: purchased KINOMEscan
# T2 sequence (Q9BX84 whole entry): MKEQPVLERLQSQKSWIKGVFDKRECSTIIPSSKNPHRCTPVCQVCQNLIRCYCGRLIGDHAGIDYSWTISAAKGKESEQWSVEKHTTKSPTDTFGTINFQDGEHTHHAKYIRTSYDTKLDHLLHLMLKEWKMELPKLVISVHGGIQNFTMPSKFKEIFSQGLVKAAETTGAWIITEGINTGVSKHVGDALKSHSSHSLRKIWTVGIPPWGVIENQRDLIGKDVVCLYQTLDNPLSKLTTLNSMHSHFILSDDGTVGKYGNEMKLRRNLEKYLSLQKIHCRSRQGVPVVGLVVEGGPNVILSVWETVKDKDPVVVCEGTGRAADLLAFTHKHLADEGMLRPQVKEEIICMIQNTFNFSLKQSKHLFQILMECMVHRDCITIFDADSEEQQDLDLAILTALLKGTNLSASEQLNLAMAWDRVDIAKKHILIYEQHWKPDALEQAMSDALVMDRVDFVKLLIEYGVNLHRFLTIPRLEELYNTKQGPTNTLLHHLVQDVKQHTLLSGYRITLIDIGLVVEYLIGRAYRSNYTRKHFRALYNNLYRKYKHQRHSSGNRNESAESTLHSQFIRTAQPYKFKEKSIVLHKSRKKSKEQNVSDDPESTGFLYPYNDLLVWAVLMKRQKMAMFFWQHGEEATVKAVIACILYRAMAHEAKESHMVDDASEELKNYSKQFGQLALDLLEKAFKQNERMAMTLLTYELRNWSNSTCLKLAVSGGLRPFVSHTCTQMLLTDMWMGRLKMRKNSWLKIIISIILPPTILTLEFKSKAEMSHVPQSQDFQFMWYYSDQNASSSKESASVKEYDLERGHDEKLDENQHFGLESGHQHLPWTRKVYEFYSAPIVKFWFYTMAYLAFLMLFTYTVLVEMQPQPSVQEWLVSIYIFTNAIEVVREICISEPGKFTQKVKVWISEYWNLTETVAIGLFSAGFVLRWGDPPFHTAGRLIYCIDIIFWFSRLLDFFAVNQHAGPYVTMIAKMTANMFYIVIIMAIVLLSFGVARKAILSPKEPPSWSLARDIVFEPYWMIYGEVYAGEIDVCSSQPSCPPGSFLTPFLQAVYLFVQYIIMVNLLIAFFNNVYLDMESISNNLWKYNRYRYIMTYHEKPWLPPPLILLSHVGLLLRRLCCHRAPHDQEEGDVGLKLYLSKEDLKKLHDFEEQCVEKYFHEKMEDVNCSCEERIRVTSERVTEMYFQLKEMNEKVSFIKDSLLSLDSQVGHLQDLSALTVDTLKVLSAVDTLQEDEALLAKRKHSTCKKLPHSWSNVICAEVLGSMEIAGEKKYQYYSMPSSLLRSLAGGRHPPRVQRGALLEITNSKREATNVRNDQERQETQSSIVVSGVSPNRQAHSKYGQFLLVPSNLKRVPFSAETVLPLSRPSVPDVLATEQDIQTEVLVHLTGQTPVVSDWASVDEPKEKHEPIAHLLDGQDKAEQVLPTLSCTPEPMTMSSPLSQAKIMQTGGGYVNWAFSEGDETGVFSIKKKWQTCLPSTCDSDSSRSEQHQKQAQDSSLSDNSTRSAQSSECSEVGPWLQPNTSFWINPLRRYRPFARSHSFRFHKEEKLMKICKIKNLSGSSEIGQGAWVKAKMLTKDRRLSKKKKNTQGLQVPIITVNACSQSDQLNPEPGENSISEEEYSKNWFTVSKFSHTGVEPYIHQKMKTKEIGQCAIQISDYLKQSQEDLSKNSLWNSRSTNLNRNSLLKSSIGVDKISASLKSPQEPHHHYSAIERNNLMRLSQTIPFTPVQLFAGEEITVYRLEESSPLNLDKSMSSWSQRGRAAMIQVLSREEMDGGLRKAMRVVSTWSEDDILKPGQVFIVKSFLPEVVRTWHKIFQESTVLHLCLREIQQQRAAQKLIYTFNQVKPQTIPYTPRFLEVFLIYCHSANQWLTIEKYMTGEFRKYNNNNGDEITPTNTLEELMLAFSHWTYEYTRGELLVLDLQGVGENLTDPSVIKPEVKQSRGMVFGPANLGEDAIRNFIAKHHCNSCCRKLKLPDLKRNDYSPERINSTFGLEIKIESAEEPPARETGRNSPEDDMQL
# Text: as §1
Compound,KINOMEscan: CDKL2 (panel of 442 kinases [1]),"% Ctrl, TRPM6 (panel of 442 kinases [2]) [% Ctrl]"
COc1cc(C(=O)N2CCC(N3CCN(C)CC3)CC2)ccc1Nc1ncc2c(n1)N(C)c1ccccc1C(=O)N2C [15 (LRRK2-IN-1)],100,100
COc1cc(C(=O)N2CCC(N3CCN(C)CC3)CC2)ccc1Nc1ncc2c(n1)N1CCc3cccc(c31)C(=O)N2C [Compound 24],,100
"COc1cc(C(=O)N2CCC(N3CCN(C)CC3)CC2)ccc1Nc1ncc2c(n1)N(C1CCCC1)c1ccccc1C(=O)N2C [Compound 25, 11-cyclopentyl-2-((2-methoxy-4-(4-(4-methylpiperazin-1-yl)piperidine-1-carbonyl)phenyl)amino)-5-methyl-5H-benzo[e]pyrimido[5,4-b][1,4]diazepin-6(11H)-one]",95,100
CCOc1cc(C(=O)N2CCC(N3CCN(C)CC3)CC2)ccc1Nc1ncc2c(n1)N(C1CCCC1)c1ccccc1C(=O)N2C [Compound 26],99,94

# Source: PMC3914206
